C=CC(=O)NC(C)(C)C
Conditions	solubility (mole fraction)
in DMAc, 293.15 K	0.0814
in DMAc, 298.15 K	0.0897
in DMAc, 303.15 K	0.0979
in DMAc, 308.15 K	0.11
in DMAc, 313.15 K	0.127
in DMAc, 318.15 K	0.146
in DMAc, 323.15 K	0.172
in DMAc, 328.15 K	0.203
in DMAc, 333.15 K	0.236
in DMAc, 338.15 K	0.274
in DMAc, 343.15 K	0.317
in DMAc, 348.15 K	0.364
in DMAc, 353.15 K	0.43
in DMF, 288.15 K	0.0207
in DMF, 293.15 K	0.0237
in DMF, 298.15 K	0.0283
in DMF, 303.15 K	0.0333
in DMF, 308.15 K	0.0403
in DMF, 313.15 K	0.0463
in DMF, 318.15 K	0.0529
in DMF, 323.15 K	0.0599
in DMF, 328.15 K	0.0709
in DMF, 333.15 K	0.0833
in DMF, 338.15 K	0.0987
in DMF, 343.15 K	0.117
in DMF, 348.15 K	0.138
in DMF, 353.15 K	0.166
in dichloromethane, 279.15 K	0.00541
in dichloromethane, 283.15 K	0.0065
in dichloromethane, 285.15 K	0.0072
in dichloromethane, 287.15 K	0.00798
in dichloromethane, 289.15 K	0.00889
in dichloromethane, 291.15 K	0.00962
in dichloromethane, 293.15 K	0.0106
in dichloromethane, 296.15 K	0.0117
in dichloromethane, 298.15 K	0.0128
in dichloromethane, 301.15 K	0.0142
in dichloromethane, 304.15 K	0.016
in ethanol, 284.95 K	0.00136
in ethanol, 287.95 K	0.00152
in ethanol, 291.15 K	0.0017
in ethanol, 294.15 K	0.0021
in ethanol, 297.15 K	0.0024
in ethanol, 300.15 K	0.00283
in ethanol, 304.15 K	0.00344
in ethanol, 307.15 K	0.00392
in ethanol, 310.15 K	0.00463
in ethanol, 313.15 K	0.00522
in ethanol, 316.15 K	0.00598
in ethanol, 319.15 K	0.00677
in ethanol, 324.15 K	0.00864
in ethanol, 330.15 K	0.0113
in ethanol, 335.15 K	0.0142
in ethyl acetate, 287.15 K	0.015
in ethyl acetate, 290.15 K	0.0155
in ethyl acetate, 293.15 K	0.0166
in ethyl acetate, 296.15 K	0.0178
in ethyl acetate, 299.15 K	0.0188
in ethyl acetate, 302.15 K	0.0204
in ethyl acetate, 305.15 K	0.0225
in ethyl acetate, 310.15 K	0.0256
in ethyl acetate, 315.15 K	0.0289
in ethyl acetate, 320.15 K	0.0327
in ethyl acetate, 325.15 K	0.0363
in ethyl acetate, 330.15 K	0.0406
in ethyl acetate, 335.15 K	0.045
in ethyl acetate, 340.15 K	0.0506
in formamide, 284.15 K	0.00078
in formamide, 288.15 K	0.000929
in formamide, 294.15 K	0.00117
in formamide, 305.15 K	0.00199
in formamide, 308.15 K	0.00229
in formamide, 312.15 K	0.00277
in formamide, 316.15 K	0.00348
in formamide, 320.15 K	0.0043
in formamide, 324.15 K	0.00512
in formamide, 329.15 K	0.00639
in formamide, 334.15 K	0.00776
in formamide, 340.15 K	0.00994
in formamide, 345.15 K	0.0122
in formamide, 350.15 K	0.015
in water, 294.15 K	0.000895
in water, 298.15 K	0.000994
in water, 303.15 K	0.00111
in water, 308.15 K	0.00122
in water, 313.15 K	0.00136
in water, 318.15 K	0.00153
in water, 323.15 K	0.00172
in water, 328.15 K	0.00192
in water, 333.15 K	0.00215
in water, 338.15 K	0.0024
in water, 343.15 K	0.00267
in water, 348.15 K	0.00297
in water, 353.15 K	0.00338
